Results published in patent US20020086893A1, “Medicament” (SmithKline Beecham p.l.c., priority 1990, published 2002).
Structures can show the parent of a compound that is named as a salt.

| melting point [°C] | Structure (SMILES) |
| --- | --- |
| 178 to 181 | CCCSc1ncc(C[C@H](NC(=O)CCC)C(=O)O)n1Cc1ccccc1Cl [Example 1, 3-[(2-Chlorophenyl)methyl]-2-propylthio-N-butyrylhistidine] |
| 254 to 255 | CCCCc1nc2cc(Br)cc(C(=O)O)c2n1Cc1ccccc1Cl [Example 4, 5-Bromo-2-n-butyl-1-(2-chlorophenyl)methyl-1H-benzimidazole-7-carboxylic Acid] |
| 118 to 120 | CCCCc1ncc(CC(Cc2ccccc2)C(=O)O)n1Cc1ccccc1Cl (stereo not drawn) (as salt: hydrochloride) [Example 2, 3-[2-n-Butyl-1-{(2-chlorophenyl)methyl}-1H-imidazol-5-yl]-2-benzylpropanoic Acid] |
